Results on one molecule are retold here after patent publication US20140080810A1 (Exelixis, Inc., priority 2010, published 2014).

Assay [1] concerns PTEN-negative tumors. Particulars: specific inhibition of PI3Kβ; cited from earlier work.
In assay [2] the test system is PTEN-negative tumors. The conditions noted are these: specific inhibition of PI3Kβ; cited from earlier work. The source holds these as a separate data set.
In assay [3] the test system is pAKT (T308) in MCF-7 cells (PI3Kα E545K). The assay can be described thus: pAKT (T308) ELISA Assay. Particulars: Homo sapiens, MCF7; IGF1 stimulation; read-out: pAKT (T308) IC50 MCF-7 PI3Kα E545K IGF1. The format is cell-based. Here is the method:
MCF-7 cells (ATCC) cells were seeded at 24000 cells per well in 96-well plates (Corning, 3904) in DMEM (Cellgro) containing 10% FBS (Cellgro), 1% NEAA (Cellgro) and 1% penicillin-streptomycin (Cellgro). Cells were incubated at 37° C., 5% CO2 for 48 h, and the growth medium was replaced with serum-free DMEM or in medium containing 0.4% BSA. Serial dilutions of the test Compound in 0.3% DMSO (vehicle) were added to the cells and incubated for 3 h. At the end of the incubation period, cells were stimulated for 10 minutes by the addition of L-IGF (Sigma, I-1271) at a final concentration of 100 ng/ml. Afterwards, media was discarded from cell plates and 110 μl/well of cold lysis buffer (see table below) were added. Cell plates were incubated on ice and then put on shaker in 4° C. cold room for 1 h. Two capture plates (Thermo Scientific, Reacti-bind plate, 15042) were prepared for each cell plate by pre-coating with capture Akt antibody from the two sandwich ELISA antibody pairs used (Cell Signaling Technology 7142 and 7144). The Akt capture antibodies were diluted 1:100 in PBS and 100 μl of diluted capture antibody was added per well. Capture plates were incubated at 4 C overnight. Prior to use, capture plates were washed 3 times in TBS containing 0.1% Tween20 (Bio-Rad, 170-6351) (TBST) and blocked in blocking buffer (Thermo Scientific, Starting Block T20, 37543) for 1-2 h at room temperature. After 1 h of cell lysis, 85 μl of cell lysate/well was transferred to the capture plate for detection of pAkt(T308). 15 μl of cell lysate was transferred from same well to the second capture plate for detection of total Akt1. After incubation overnight at 4° C., plates were washed 3 times with 200 μL TBST. Primary antibodies, diluted 1:100 in blocking buffer, were added to the corresponding capture plates for pAkt(T308) (Cell Signaling Technology, 7144) and total Akt1 (Cell Signaling Technology, 7142) detection and incubated at room temperature for 1 h. Plates were washed 3 times with 200 μL of TBST. Goat anti-mouse secondary antibody (Cell Signaling Technology, 7076) conjugated to HRP was diluted 1:1000 in blocking buffer and 100 μl were added to each well and incubated for 30 minutes at room temperature. Plates were then washed 3 times with 200 μL of TBST. 100 μL of SuperSignal ELISA Femto stable peroxidase solution (Thermo Scientific, 37075) was added to each well. After 1 minute incubation, chemiluminescence was read on a Wallac Victor2 1420 multilabel counter. IC50 values were determined based on the ratio of pAkt(T308) to total Akt1 signal for Compound treated wells, normalized to the DMSO-treated control wells.
In another embodiment, the pAKT ELISA Assay was performed by seeding cells onto 96-well plates (Corning, 3904) in their respective growth media at the densities listed in Table 5. Cells were incubated at 37° C., 5% CO2 for 48 h (except MDA-MB-453 cells which were cultured in the absence of CO2). Compounds were serially diluted in DMSO and subsequently diluted in serum-free DMEM. Test compounds were added to cells in serum-free DMEM at a final concentration of 0.3% DMSO and incubated for 3 h. Cells were lysed with 130 μL of ice-cold RIPA lysis buffer (50 mM Tris-HCl, pH 7.5; 0.5% sodium deoxycholic acid; 1% Triton X-100; 0.1% SDS; 150 mM NaCl) with protease and phosphatase inhibitors (1 mM EDTA, 1 mM NaF, 20 mM β-glycerophosphate, 1 mM Na-orthovanadate, Complete-Mini EDTA-free, Roche, 11836170001, and Phosphatase Inhibitor Cocktail I, Sigma, P2850), directly in 96-well plates. Cells were lysed on ice for 60-120 min at 4° C. The supernatants were added directly to capture ELISA plates previously pre-coated with rabbit anti-AKT capture antibody. ELISA assays for pAKT(T308) and total AKT were performed with the pAKT(T308) ELISA kit (Cell Signaling Technology, 7144) and AKT1 ELISA kit (Cell Signaling Technology, 7142). For the pAKT(T308) ELISA, 85 μL of cell lysate was added to each well. […]

Take `Cc1cc(C(C)Nc2ccccc2)c2nc(N3CCOCC3)cc(=O)n2c1` (stereo not drawn) [TGX-221, 7-methyl-2-(4-morpholinyl)-9-[1-(phenylamino)ethyl]-4H-pyrido[1,2-a]pyrimidin-4-one]: in the assay on PTEN-negative tumors [1], the cell growth result is “blocks”. In the assay with PTEN-negative tumors [2], the “basal AKT phosphorylation” value was “blocks”. In addition, the IC50 (in general, the point on the concentration scale where inhibition reaches its midpoint) in assay [3] was found to be 1.76 µM.
